Measurements taken from PMC8401465, “In Vitro Testing of Alternative Synthetic and Natural Antiparasitic Compounds against the Monogenean Sparicotyle chrysophrii” (Pathogens, 2021).
Entries after “also recorded” stand apart in the source; their conditions may differ. Read-outs that look alike come from different tables or passages of the source.

Experiments:
Vibrio harveyi = assay: Bactericidal activity (MTT), Vibrio harveyi; format: cell-based; conditions: for inhibition at 0.1 µM / inhibition at 1 µM / inhibition at 10 µM: Vibrio harveyi, read-out: Bactericidal activity (%); for bactericidal activity against V. harveyi: synthetic compounds, at increased concentrations
Protocol: (§1) Two bacterial fish pathogens, Vibrio harveyi and V. anguillarum were used to test the bactericidal activity of the target compounds, being previously isolated and identified as described in [65]. Lab strains were maintained at −20 °C in Tryptone Soy Broth (TSB, Difco Laboratories, Inc., Detroit, MI, USA) supplemented with 1% (w/v) NaCl (TSB1) and 50% (v/v) glycerol. […] Bacteria in TSB medium were then cultured at the same temperature with continuous shaking (100 rpm) for 24 h. Exponentially grown bacteria were resuspended in sterile PBS and adjusted to the concentration of 10^8 colony forming units (cfu)/mL. Each target compound (20 μL; concentrations 0.1, 1, and 10 µM) was added (in triplicates) to the wells of a flat-bottom 96-well plate, except for the positive control that consisted of 0.5% DMSO in PBS. Aliquots of 20 μL of the previously cultured bacteria were added, and the plate was incubated for 5 h at 25 °C. […] The plate was then centrifuged (4500 rpm, 10 min) and the precipitate dissolved in 200 μL of DMSO. The solution (100 μL) from each well was transferred to another flat-bottom 96-well plate. The absorbance of the dissolved formazan was measured at 570 nm. Bactericidal activity was expressed as percentage of nonviable bacteria, calculated as the difference between absorbance of surviving bacteria compared to the absorbance of bacteria in positive controls (100%).

Vibrio anguillarum = assay: Bactericidal activity (MTT), Vibrio anguillarum; format: cell-based; conditions: for inhibition at 0.1 µM / inhibition at 1 µM / inhibition at 10 µM: Vibrio anguillarum, read-out: Bactericidal activity (%); for antimicrobial activity against V. anguillarum / antibacterial activity against V. anguillarum: p < 0.05; for antibacterial activity against V. anguillarum: among the natural compounds
Protocol: as §1

[1] = tested on: Sparicotyle chrysophrii adults; assay: microbe, parasite or virus in culture; conditions: for mortality at 1000 µM: Sparicotyle chrysophryii
Protocol: Firstly, the adult monogeneans were exposed to a range of four concentrations of tested compounds encompassing the full dose–response range; each compound stock at 10 mM was serially diluted 10 (1 mM), 10^2 (0.1 mM), 10^3 (0.01 mM), and 10^4 (1 µM) times. […] Ten monogeneans per well (in triplicate) were added to 2 mL sterile seawater (SW) in 6-well plates, checked at the stereomicroscope for visible signs of mechanical damage, and exposed to selected concentrations in the dark at room temperature (Table 1). The number of live/dead parasites was recorded under the stereomicroscope at 1, 4, 12, and 24 h post-exposure. S. chrysophrii was considered to be alive if it performed any type of movement autonomously or 5 s after gentle probing with a dissection needle. Negative controls comprised the seawater with up to 0.5% of DMSO in total volume, the latter used as a solvent for each compound.

SAF-1 cells = assay: Viability of SAF-1 cell line (MTT assay); format: cell-based, Sparus aurata; conditions: for viability of SAF-1 cells compared to control: 0.1–10 µM, 24, 48, 72 h
Protocol: Sparus aurata fibroblast cell line SAF-1 (ECACC n°00122301) was cultured in 25 cm^2 plastic flasks (Nunc, Darmstadt, Germany) in L-15 Leibowitz medium (Sigma, Haverhill, UK) supplemented with 10% fetal bovine serum (FBS), 2 mmol/L L-glutamine, 100 iu/mL penicillin, and […] streptomycin (all reagents from Sigma-Aldrich, Saint Louis, MO, USA).
Cells were grown at 25 °C under an 85% humidity atmosphere. Cells at 80% of confluence were detached with trypsin solution (0.25% of trypsin in PBS, pH 7.2–7.4) and pelleted by centrifugation (1000 rpm, 10 min, 25 °C). The cell suspension in complete medium was dispensed in a 96-multiwell plate at a density of 8000 cells/well and incubated for 24 h before the exposure to the compounds.
Cytotoxicity assay was performed in six replicates. Stock solutions were prepared by dissolving the compounds in dimethyl sulfoxide (DMSO), and then diluting in complete medium (final concentration of DMSO 0.1%) to obtain concentration of 0.1, 1, and 10 µM of target compounds.
Cells were then incubated for 24, 48, and 72 h in three different plates at 25 °C. Control samples received the same volume of culture medium and DMSO 0.1%, although this concentration of solvent is considered non-toxic.
The toxicity of the compounds was determined using the (3-(4,5-dimethylthiazol-2-yl)-2,5-diphenyltetrazolium bromide (MTT, Sigma-Aldrich) assay, according to [62], as reported in [61]. The results were expressed as viability percentage in respect to the controls (untreated cells).
The MTT assay is based on the reduction in the yellow soluble tetrazolium salt (3-(4,5-dimethylthiazol-2-yl)-2,5-diphenyltetrazolium bromide) (MTT, Sigma-Aldrich, Saint Louis, Missouri, USA) into a blue, insoluble formazan produced by the mitochondrial succinate dehydrogenase. […] After 4 h of incubation, cells were washed again, and the formazan crystals solubilized with […] of DMSO. Plates were shaken (5 min, 100 rpm) in dark conditions and the optical densities (ODs) at 570 nm with background subtraction at 690 nm were determined in a microplate reader (Opsys MR™ Microplate Reader, USA). The percentage of viability was determined by formula:Viability (%) = (OD of the tested sample/OD of the control sample) × 100

[2] = tested on: wild and drug-resistant Leishmania donovani amastigotes; design: method as in PMID 28400285; conditions: cited from earlier work
[3] = tested on: Sparicotyle chrysophrii adults; assay: microbe, parasite or virus in culture; conditions: for LC20 (95% CI), toxicity level for adult S. chrysophrii: 20% mortality; for LC20 (95% CI), toxicity level for adult S. chrysophrii / LC80 (95% CI), toxicity level for adult S. chrysophrii: 4 h post-exposure; for LC80 (95% CI), toxicity level for adult S. chrysophrii: 80% mortality; for LC50: Sparicotyle chrysophryii, 4 h, read-out: LC50 (95% CI), toxicity level for adult S. chrysophrii; for b (SE), slope of dose–response model / e (SE), midpoint of dose–response model: Weibull type 2, c = 0, d = 1, mortality at 4 h post-exposure
Protocol: Subsequently, the monogeneans (n = 6, in triplicate) were exposed to a range of seven concentrations tailored according to each compound’s activity observed in preliminary tests. The range for each compound was scaled down to an appropriate order of magnitude so that each compound reached 100% mortality at 4 h post-exposure (Table 1).
For the dose–response curve fitting, the drc package for R (v4.0.4) was used. An appropriate nonlinear regression model was selected between log-logistic and Weibull type models, based on the Akaike information criterion (AIC) and lack-of-fit test criteria through the use of mselect function. The best scoring model was Weibull type 2 model (asymmetrical) with lower and upper limits fixed to 0 and 1, respectively, as mortality in all assays reached 100%. […] Model parameters and estimated lethal doses (20%, 50%, and 80%) were calculated with standard errors and 95% confidence intervals, based on the delta method, respectively, and adjusted for simultaneous inference through multcomp package. Dose–response curves were visualised using ggplot2 library.

CCCCCCc1ccc(O)cc1O [4-Hexylresorcinol, reference compound]
inhibition at 0.1 µM (Vibrio harveyi; 0.1 µM, 5 h at 25 °C): 19.6 ± 31.5%
inhibition at 1 µM (Vibrio harveyi; 1 µM, 5 h at 25 °C): 34.7 ± 10.1%
inhibition at 10 µM (Vibrio harveyi; 10 µM, 5 h at 25 °C): 67.5 ± 14.1%
bactericidal activity against V. harveyi (Vibrio harveyi): significant bactericidal activity
inhibition at 0.1 µM (Vibrio anguillarum; 0.1 µM, 5 h at 25 °C): -121 ± 10.9%
inhibition at 1 µM (Vibrio anguillarum; 1 µM, 5 h at 25 °C): -76.1 ± 33.9%
inhibition at 10 µM (Vibrio anguillarum; 10 µM, 5 h at 25 °C): -55.5 ± 31.6%
mortality at 1000 µM ([1]; 1 h): 100%
viability of SAF-1 cells compared to control (SAF-1 cells): did not induce a significant reduction in viability

S=C=Nc1ccc(N=C=S)cc1 [Bitoscanate, reference compound]
inhibition at 0.1 µM (Vibrio harveyi; 5 h): -21.6 ± 6%
inhibition at 1 µM (Vibrio harveyi; 5 h): -0.088 ± 16.3%
inhibition at 10 µM (Vibrio harveyi; 5 h): 13.1 ± 5.1%
antimicrobial activity against V. anguillarum (Vibrio anguillarum; 10 µM): best antimicrobial activity
inhibition at 0.1 µM (Vibrio anguillarum; 5 h): -10.8 ± 19.9%
inhibition at 1 µM (Vibrio anguillarum; 5 h): 19.6 ± 3.7%
inhibition at 10 µM (Vibrio anguillarum; 5 h): 30.5 ± 2%
mortality at 1000 µM ([1]; 24 h): 100%
viability of SAF-1 cells compared to control (SAF-1 cells): did not induce a significant reduction in viability

C[C@@H]1CC[C@H]2C(C)(C)[C@H]3C[C@@]12CC[C@@]3(C)O [Cedrol]
inhibition at 0.1 µM (Vibrio harveyi; 0.1 µM, 5 h at 25 °C): -44.9 ± 7.7%
inhibition at 1 µM (Vibrio harveyi; 1 µM, 5 h at 25 °C): -23.8 ± 6.9%
inhibition at 10 µM (Vibrio harveyi; 10 µM, 5 h at 25 °C): -2.4 ± 26.9%
potency / effect against V. anguillarum as judged in the discussion (Vibrio anguillarum): effective only against V. anguillarum
inhibition at 0.1 µM (Vibrio anguillarum; 0.1 µM, 5 h at 25 °C): -6.9 ± 3%
inhibition at 1 µM (Vibrio anguillarum; 1 µM, 5 h at 25 °C): 24.1 ± 8%
inhibition at 10 µM (Vibrio anguillarum; 10 µM, 5 h at 25 °C): 30.8 ± 6.4%
antibacterial activity against V. anguillarum (Vibrio anguillarum): strongest antibacterial activity
fold increase of selectivity index (CC50/IC50) ([2]; incorporated and delivered within lipid nanocarrier, wild-type L. donovani): 2.1
IC50 ([2]; wild and drug-resistant L. donovani amastigotes infecting humans, read-out: inhibitory concentration (IC50)): 1.5 µM
reduction in sea bream fibroblasts' viability (SAF-1 cells; 10 µM, 72 h of exposure): highest reduction in sea bream fibroblasts’ viability; also recorded: moderately toxic to the host cell line during long-term exposure to very high concentrations
LC20 (95% CI), toxicity level for adult S. chrysophrii [3]: 0.09 (0.06–0.11) mM
LC80 (95% CI), toxicity level for adult S. chrysophrii [3]: 0.14 (0.12–0.16) mM
times the L. donovani IC50 is lower than the LC50 observed for S. chrysophrii ([3]; IC50 1.5 μM (ref 33) against own LC50): approximately 73
LC50 [3]: 110 µM
b (SE), slope of dose–response model [3]: 3.98 (0.66)
e (SE), midpoint of dose–response model [3]: 0.12 (0.01)

O=c1ccc2ccccc2o1 [Coumarin]
inhibition at 0.1 µM (Vibrio harveyi; 0.1 µM, 5 h at 25 °C): -33.4 ± 3.9%
inhibition at 1 µM (Vibrio harveyi; 1 µM, 5 h at 25 °C): -21.2 ± 13.3%
inhibition at 10 µM (Vibrio harveyi; 10 µM, 5 h at 25 °C): -1.9 ± 7.6%
inhibition at 0.1 µM (Vibrio anguillarum; 0.1 µM, 5 h at 25 °C): 1.5 ± 8.38%
inhibition at 1 µM (Vibrio anguillarum; 1 µM, 5 h at 25 °C): 13.2 ± 13.4%
inhibition at 10 µM (Vibrio anguillarum; 10 µM, 5 h at 25 °C): 17.3 ± 5%
antibacterial activity against V. anguillarum (Vibrio anguillarum): strongest antibacterial activity
mortality at 1000 µM ([1]; 24 h): 100%

COc1cc(/C=C/C(=O)CC(=O)/C=C/c2ccc(O)c(OC)c2)ccc1O [Curcumin]
potency / effect against V. harveyi as judged in the discussion (Vibrio harveyi): ineffective against V. harveyi
inhibition at 0.1 µM (Vibrio harveyi; 0.1 µM, 5 h at 25 °C): 2.1 ± 15%
inhibition at 1 µM (Vibrio harveyi; 1 µM, 5 h at 25 °C): 7.6 ± 2.1%
inhibition at 10 µM (Vibrio harveyi; 10 µM, 5 h at 25 °C): 10.4 ± 4.5%
potency / effect against V. anguillarum as judged in the discussion (Vibrio anguillarum): potent anti-Vibrio anguillarum agent
inhibition at 0.1 µM (Vibrio anguillarum; 0.1 µM, 5 h at 25 °C): 9.5 ± 7.5%
inhibition at 1 µM (Vibrio anguillarum; 1 µM, 5 h at 25 °C): 24.5 ± 14.6%
inhibition at 10 µM (Vibrio anguillarum; 10 µM, 5 h at 25 °C): 34.9 ± 1.2%
antibacterial activity against V. anguillarum (Vibrio anguillarum): strongest antibacterial activity
cytotoxicity in SAF-1 cells (SAF-1 cells; 10 µM for 24 h): exerted significant cytotoxicity
LC20 (95% CI), toxicity level for adult S. chrysophrii [3]: 0.14 (0.06–0.23) mM
LC80 (95% CI), toxicity level for adult S. chrysophrii [3]: 0.36 (0.26–0.45) mM
LC50 [3]: 240 µM
b (SE), slope of dose–response model [3]: 2.14 (0.44)
e (SE), midpoint of dose–response model [3]: 0.29 (0.03)
fold less toxic for the monogenean compared to cedrol ([3]; comparison with cedrol): 2

C=CCSCC=C [Diallyl sulphide]
inhibition at 0.1 µM (Vibrio harveyi; 0.1 µM, 5 h at 25 °C): -36.6 ± 6.8%
inhibition at 1 µM (Vibrio harveyi; 1 µM, 5 h at 25 °C): -36.4 ± 7.9%
inhibition at 10 µM (Vibrio harveyi; 10 µM, 5 h at 25 °C): -1.6 ± 0.7%
antimicrobial activity against V. anguillarum (Vibrio anguillarum; 10 µM): best antimicrobial activity
inhibition at 0.1 µM (Vibrio anguillarum; 0.1 µM, 5 h at 25 °C): -11.3 ± 24.8%
inhibition at 1 µM (Vibrio anguillarum; 1 µM, 5 h at 25 °C): -5.8 ± 11.7%
inhibition at 10 µM (Vibrio anguillarum; 10 µM, 5 h at 25 °C): 46.8 ± 4%
mortality at 1000 µM ([1]; 24 h): 100%

C[C@H]1C(=O)O[C@@H]2CCN3CC=C(COC(=O)[C@](C)(O)[C@]1(C)O)[C@H]23 [Monocrotaline]
antimicrobial activity against V. harveyi (Vibrio harveyi; 10 µM, p < 0.05): significant antimicrobial activity
inhibition at 0.1 µM (Vibrio harveyi; 5 h): -4.9 ± 24.9%
inhibition at 1 µM (Vibrio harveyi; 5 h): 18.2 ± 10.9%
inhibition at 10 µM (Vibrio harveyi; 5 h): 40.1 ± 4.1%
inhibition at 0.1 µM (Vibrio anguillarum; 5 h): -73 ± 56.1%
inhibition at 1 µM (Vibrio anguillarum; 5 h): -46.9 ± 32%
inhibition at 10 µM (Vibrio anguillarum; 5 h): 17.9 ± 0.6%
mortality at 1000 µM ([1]; 1 h): 100%

CCN(CC)C(=O)c1cccc(C)c1 [N,N-diethyl-M-toluamide, reference compound]
inhibition (Vibrio harveyi; 0.1 µM): -0.9 ± 8.7%
inhibition (Vibrio harveyi; 1 µM): 4.5 ± 16.7%
inhibition (Vibrio harveyi; 10 µM): 13.7 ± 0.6%
bactericidal activity against V. harveyi (Vibrio harveyi): significant bactericidal activity
inhibition (Vibrio anguillarum; 0.1 µM): -61.9 ± 29%
inhibition (Vibrio anguillarum; 1 µM): -28.5 ± 24.1%
inhibition (Vibrio anguillarum; 10 µM): 9.1 ± 8.5%
mortality ([1]; highest concentration (1 mM), already after 1 h): 100%
